Reference: patent US10208033B2, “β-carboline, dihydro-β-carboline and tetrahydro-β-carboline alkaloid derivatives and preparation methods same and use in aspects of preventing and treating plant viruses, fungicides and insecticides” (NANKAI UNIVERSITY, priority 2013, dated 2019)

What was measured:
[1] = test system: tobacco mosaic virus (TMV); test: Anti-TMV in vitro effect (half-leaf soaking); type: cell-based, tobacco mosaic virus (host Nicotiana tabacum L.cv.Xanthi NN)
Fusarium fujikuroi = test: Fungicidal (bactericidal) activity in vitro, PDA colony diameter; type: cell-based; conditions: 50 mg/kg
Alternaria solani = test: as above; type: cell-based; conditions: 50 mg/kg
Rhizoctonia solani = test: as above; type: cell-based; conditions: 50 mg/kg
mosquito larvae = test: whole plant or invertebrate; conditions: 24 h; for Mosquito larvae Mortality (%): concentration 10 mg/kg
How it was run: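 Compound dissolved in acetone (or other solvent) to a 1000 ppm stock and diluted in water to 5 ppm. Ten Culex pipiens pallens larvae at the start of the fourth instar, laboratory-reared, added per beaker; solvent-only aqueous control.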

corn borers [2] = conditions: concentration 600 mg/kg
potato late blight = test: microbe, parasite or virus in culture; type: cell-based
Phytophthora capsici = test: Fungicidal (bactericidal) activity in vitro, PDA colony diameter; type: cell-based; conditions: 50 mg/kg
Sclerotinia scleotiorum = test: as above; type: cell-based; conditions: 50 mg/kg
[3] = test system: Colletotrichum orbiculare; test: as above; type: cell-based; conditions: 50 mg/kg
[4] = test system: tobacco mosaic virus (TMV); test: Anti-TMV in vivo inactivation; set-up: species or system tobacco mosaic virus (host Nicotiana tabacum L.cv.Xanthi NN)
[5] = test system: tobacco mosaic virus (TMV); test: Anti-TMV in vivo protective effect; set-up: species or system tobacco mosaic virus (host Nicotiana tabacum L.cv.Xanthi NN)
cucumber fusarium wilt = test: Fungicidal (bactericidal) activity in vitro, PDA colony diameter; type: cell-based; conditions: 50 mg/kg
Macrophoma kawatsukai = test: as above; type: cell-based; conditions: 50 mg/kg
Botrytis cinerea = test: as above; type: cell-based; conditions: 50 mg/kg
armyworms = type: in vivo; conditions: concentration 600 mg/kg
[6] = test system: tobacco mosaic virus (TMV); test: Anti-TMV in vivo therapeutic effect; set-up: species or system tobacco mosaic virus (host Nicotiana tabacum L.cv.Xanthi NN)
cotton bollworms = test: whole plant or invertebrate; conditions: for Cotton bollworm Mortality (%): concentration 600 mg/kg
Description: Experimental method of cotton bollworms: feed and drug mixing method: measure 3 mL of prepared solution and add it to about 27 g of newly prepared feed, thereby obtaining needed concentration through dilution by 10 times.

Fusarium graminearumt = test: microbe, parasite or virus in culture; type: cell-based; conditions: 50 mg/kg
Bipolaria maydis = test: organism not typed; type: cell-based; conditions: 50 mg/kg
Rhizoctonia cereali = test: Fungicidal (bactericidal) activity in vitro, PDA colony diameter; type: cell-based; conditions: 50 mg/kg
Cercospora arachidicola = test: as above; type: cell-based; conditions: 50 mg/kg
corn borers [7] = test: whole plant or invertebrate; conditions: read-out: Corn borer Mortality (%)

| Compound | Relative inhibition rate (%) In vitro activity ([1]; treatment dose 100 μg/mL) | Relative inhibition rate (%) In vitro activity ([1]; treatment dose 500 μg/mL) | Bactericidal activity (%) Fusarium fujikuroi (Fusarium fujikuroi) | Bactericidal activity (%) Alternaria solani (Alternaria solani) | Bactericidal activity (%) Rhizoctonia solani (Rhizoctonia solani) | Mosquito larvae Mortality (%) (mosquito larvae) | Corn borer Mortality (%) (corn borers [2]) | Bactericidal activity (%) potato late blight (potato late blight) | Bactericidal activity (%) Phytophthora capsici (Phytophthora capsici) | Bactericidal activity (%) Sclerotinia scleotiorum (Sclerotinia scleotiorum) | Bactericidal activity (%) Colletotrichum orbiculare [3] | Relative inhibition rate (%) In vivo inactivation ([4]; treatment dose 100 μg/mL) | Relative inhibition rate (%) In vivo inactivation ([4]; treatment dose 500 μg/mL) | Relative inhibition rate (%) In vivo protection ([5]; treatment dose 100 μg/mL) | Bactericidal activity (%) Cucumber fusarium wilt (cucumber fusarium wilt) | Bactericidal activity (%) Macrophoma kawatsukai (Macrophoma kawatsukai) | Bactericidal activity (%) Botrytis cinerea (Botrytis cinerea) | Armyworm Mortality (%) (armyworms) | Relative inhibition rate (%) In vivo therapy ([6]; treatment dose 100 μg/mL) | Relative inhibition rate (%) In vivo therapy ([6]; treatment dose 500 μg/mL) | further results |
| --- | --- | --- | --- | --- | --- | --- | --- | --- | --- | --- | --- | --- | --- | --- | --- | --- | --- | --- | --- | --- | --- |
| C[C@@H]1N[C@H](C(=O)NN=C2CCCCC2)Cc2c1[nH]c1ccccc21 [Ic-29, (1S, 3S)—N′-cyclohexylidene-1-methyl-2,3,4,9-tetrahydropyridino [3,4-b] indol-3-formylhydrazine] | 8.6% | 43.4% | 29.4% | 19.0% | 15.3% | 45% | 15% | 26.1% | 12.1% | 7.7% | 32.0% | 12.8% | 33% | 14.3% | 0.0% | 9.1% | 52.8% | 20% | 10.9% | 41.9% | Relative inhibition rate (%) In vivo protection ([5]; in vivo): 46.2%; Cotton bollworm Mortality (%) (cotton bollworms): 25%; Bactericidal activity (%) Fusarium graminearumt (Fusarium graminearumt): 46.2%; Bactericidal activity (%) Bipolaria maydis (Bipolaria maydis): 32.0%; Bactericidal activity (%) Rhizoctonia cereali (Rhizoctonia cereali): 48.6%; Bactericidal activity (%) Cercospora arachidicola (Cercospora arachidicola): 18.2% |
| Cc1nnsc1C(=O)NNC(=O)[C@@H]1Cc2c([nH]c3ccccc23)[C@H](C)N1 [Id-2, 4-methyl-N′-((1S, 3S)-1-methyl-2,3,4,9-tetrahydropyridino [3,4-b]indol-3-triformyl)-1,2,3-thiadiazole-5-formylhydrazine] | 13.5% | 41.2% | 29.4% | 14.3% | 0.0% | 80% | 40% | 30.4% | 6.1% | 19.2% | 24.0% | 9.8% | 42.9% | 16% | 4.5% | 39.4% | 61.1% | 40% | 19.1% | 48.8% | Relative inhibition rate (%) In vivo protection ([5]; treatment dose 500 μg/mL): 51.3%; Cotton bollworm Mortality (%) (cotton bollworms): 40%; Bactericidal activity (%) Fusarium graminearumt (Fusarium graminearumt): 53.8%; Bactericidal activity (%) Bipolaria maydis (Bipolaria maydis): 28.0%; Bactericidal activity (%) Rhizoctonia cereali (Rhizoctonia cereali): 45.9%; Bactericidal activity (%) Cercospora arachidicola (Cercospora arachidicola): 18.2% |
| C[C@@H]1N[C@H](C(=O)NNC(=O)c2ccncc2)Cc2c1[nH]c1ccccc21 [Id-3, (1S, 3S)—N′-isonicotinoyl-1-methyl-2,3,4,9-tetrahydropyridino [3,4-b] indol-3-formylhydrazine] | 6.4% | 39.2% | 29.4% | 14.3% | 15.3% | 50% | 25% | 26.1% | 15.2% | 3.8% | 36.0% | 17.9% | 45.3% | 14.2% | 13.6% | 39.4% | 55.6% | 25% | 11.6% | 45% | Relative inhibition rate (%) In vivo protection ([5]; treatment dose 500 μg/mL): 42.1%; Cotton bollworm Mortality (%) (cotton bollworms): 40%; Bactericidal activity (%) Fusarium graminearumt (Fusarium graminearumt): 53.8%; Bactericidal activity (%) Bipolaria maydis (Bipolaria maydis): 16.0%; Bactericidal activity (%) Rhizoctonia cereali (Rhizoctonia cereali): 18.9%; Bactericidal activity (%) Cercospora arachidicola (Cercospora arachidicola): 27.3% |
| C[C@@H]1N[C@H](C(=O)NNC(=O)c2ccccc2)Cc2c1[nH]c1ccccc21 [Id-4, (1S, 3S)—N′-benzoyl-1-methyl-2,3,4,9-tetrahydropyridino [3,4-b] indol-3-formylhydrazine] | 0% | 36.9% | 29.4% | 33.3% | 5.6% | 25% | 15% | 17.4% | 18.2% | 7.7% | 32.0% | 0% | 37.5% | 12.1% | 13.6% | 45.5% | 55.6% | 10% | 0% | 34.2% | Relative inhibition rate (%) In vivo protection ([5]; treatment dose 500 μg/mL): 40%; Cotton bollworm Mortality (%) (cotton bollworms): 30%; Bactericidal activity (%) Fusarium graminearumt (Fusarium graminearumt): 38.5%; Bactericidal activity (%) Bipolaria maydis (Bipolaria maydis): 28.0%; Bactericidal activity (%) Rhizoctonia cereali (Rhizoctonia cereali): 35.1%; Bactericidal activity (%) Cercospora arachidicola (Cercospora arachidicola): 27.3% |
| CCCCCC(=O)NNC(=O)[C@@H]1Cc2c([nH]c3ccccc23)[C@H](C)N1 [Id-5, (1S, 3S)—N′—N-Hexanoyl-1-methyl-2,3,4,9-tetrahydropyridino [3,4-b] indol-3-formylhydrazine] | 0% | 32.1% | 29.4% | 23.8% | 1.4% | 10% | 25% | 26.1% | 21.2% | 26.9% | 28.0% | 0% | 31.5% | 0% | 22.7% | 63.6% | 66.7% | 5% | 0% | 27.3% | Relative inhibition rate (%) In vivo protection ([5]; treatment dose 500 μg/mL): 30.9%; Cotton bollworm Mortality (%) (cotton bollworms): 30%; Bactericidal activity (%) Fusarium graminearumt (Fusarium graminearumt): 46.2%; Bactericidal activity (%) Bipolaria maydis (Bipolaria maydis): 32.0%; Bactericidal activity (%) Rhizoctonia cereali (Rhizoctonia cereali): 29.7%; Bactericidal activity (%) Cercospora arachidicola (Cercospora arachidicola): 45.5% |
| COc1ccc2c3c([nH]c2c1)C(C)NCC3 (stereo not shown) [Tetrahydroharmine] |  |  |  |  |  |  |  |  |  |  |  |  |  |  |  |  |  | 0% |  |  | inhibition at 100 µg/mL ([1]; Tobacco mosaic virus, treatment dose 100 μg/mL, read-out: Relative inhibition rate (%) In vitro activity): 28.7%; inhibition at 500 µg/mL ([1]; Tobacco mosaic virus, treatment dose 500 μg/mL, read-out: Relative inhibition rate (%) In vitro activity): 58.2%; mortality at 10 mg/kg (mosquito larvae; Culex pipiens, read-out: Mosquito larvae Mortality (%)): 15%; inhibition at 100 µg/mL ([4]; Tobacco mosaic virus, treatment dose 100 μg/mL, read-out: Relative inhibition rate (%) In vivo inactivation): 26.4%; inhibition at 500 µg/mL ([4]; Tobacco mosaic virus, treatment dose 500 μg/mL, read-out: Relative inhibition rate (%) In vivo inactivation): 59.8%; inhibition at 100 µg/mL ([5]; Tobacco mosaic virus, treatment dose 100 μg/mL, read-out: Relative inhibition rate (%) In vivo protection): 24.2%; inhibition at 500 µg/mL ([5]; Tobacco mosaic virus, treatment dose 500 μg/mL, read-out: Relative inhibition rate (%) In vivo protection): 54.6%; inhibition at 100 µg/mL ([6]; Tobacco mosaic virus, treatment dose 100 μg/mL, read-out: Relative inhibition rate (%) In vivo therapy): 27.3%; inhibition at 500 µg/mL ([6]; Tobacco mosaic virus, treatment dose 500 μg/mL, read-out: Relative inhibition rate (%) In vivo therapy): 55.5%; mortality at 600 mg/kg (cotton bollworms; Helicoverpa armigera, in Gossypium hirsutum, read-out: Cotton bollworm Mortality (%)): 10%; mortality at 600 mg/kg (corn borers [7]): 0% |
